Key:
[1] = wn = mass fraction of the nth substance listed; settings: Other PVT measurement
[2] = Crystal; visual observation

CCCCCCCCOC(=O)c1ccccc1-c1ccccc1C(=O)OCCCCCCCC [dioctyl [1,1'-biphenyl]-2,2'-dicarboxylate] + O=C=O
[1], Fluid (supercritical or subcritical phases)
Settings	mass density [kg/m3]
294.15 K, 29730 kPa, w1 = 0.55	926
294.75 K, 7070 kPa, w1 = 0.019	786
294.95 K, 61930 kPa, w1 = 0.374	942
296.95 K, 55900 kPa, w1 = 0.374	931
297.05 K, 11550 kPa, w1 = 0.628	870
298.55 K, 27860 kPa, w1 = 0.55	917
299.45 K, 9000 kPa, w1 = 0.019	784
301.15 K, 12660 kPa, w1 = 0.628	862
303.75 K, 60200 kPa, w1 = 0.274	984
308.05 K, 69130 kPa, w1 = 0.094	953
311.55 K, 50510 kPa, w1 = 0.274	965
312.35 K, 42450 kPa, w1 = 0.374	882
313.45 K, 26760 kPa, w1 = 0.55	896
316.95 K, 53240 kPa, w1 = 0.094	911
317.25 K, 14760 kPa, w1 = 0.019	750
318.45 K, 16170 kPa, w1 = 0.628	848
319.45 K, 53170 kPa, w1 = 0.171	1122
320.25 K, 44070 kPa, w1 = 0.069	922
322.45 K, 27040 kPa, w1 = 0.55	895
322.55 K, 49720 kPa, w1 = 0.206	1098
323.45 K, 44620 kPa, w1 = 0.274	934
324.25 K, 48000 kPa, w1 = 0.094	883
327.05 K, 41620 kPa, w1 = 0.069	899
329.65 K, 48240 kPa, w1 = 0.171	1085
330.85 K, 28520 kPa, w1 = 0.55	882
331.25 K, 47070 kPa, w1 = 0.206	1071
334.65 K, 19620 kPa, w1 = 0.628	838
334.65 K, 39730 kPa, w1 = 0.374	852
334.85 K, 19620 kPa, w1 = 0.019	716
337.75 K, 42720 kPa, w1 = 0.274	903
339.35 K, 44380 kPa, w1 = 0.094	845
340.95 K, 45450 kPa, w1 = 0.206	1040
340.95 K, 46170 kPa, w1 = 0.171	1048
342.45 K, 40210 kPa, w1 = 0.374	857
342.75 K, 39580 kPa, w1 = 0.069	852
351.75 K, 44960 kPa, w1 = 0.206	1005
352.95 K, 42930 kPa, w1 = 0.274	879
353.55 K, 23520 kPa, w1 = 0.628	828
353.85 K, 32040 kPa, w1 = 0.55	866
353.95 K, 45690 kPa, w1 = 0.171	1013
354.35 K, 43820 kPa, w1 = 0.094	811
355.95 K, 41140 kPa, w1 = 0.374	830
356.55 K, 40450 kPa, w1 = 0.069	821
359.75 K, 25240 kPa, w1 = 0.019	671
359.75 K, 45100 kPa, w1 = 0.206	994
367.25 K, 43820 kPa, w1 = 0.274	849
369.25 K, 46200 kPa, w1 = 0.171	970
369.85 K, 45410 kPa, w1 = 0.206	955
370.25 K, 44510 kPa, w1 = 0.094	779
371.05 K, 26730 kPa, w1 = 0.628	821
371.45 K, 42590 kPa, w1 = 0.374	816
371.55 K, 41450 kPa, w1 = 0.069	788
371.85 K, 34480 kPa, w1 = 0.55	851
375.95 K, 27720 kPa, w1 = 0.019	638

CCCCCCCCOC(=O)c1cccc(-c2cccc(C(=O)OCCCCCCCC)c2)c1 [dioctyl [1,1'-biphenyl]-3,3'-dicarboxylate]
Settings	Normal melting temperature [°C]
[2]	29.00

CCCCCCCCOC(=O)c1cccc(-c2cccc(C(=O)OCCCCCCCC)c2)c1 [dioctyl [1,1'-biphenyl]-3,3'-dicarboxylate] + O=C=O
[1]
Settings	mass density [kg/m3]
294.95 K, 21200 kPa, Gas, w1 = 0.018	883
295.55 K, 15610 kPa, Gas, w1 = 0.62	1089
296.05 K, 6100 kPa, Fluid (supercritical or subcritical phases), w1 = 0.277	750
298.55 K, 6480 kPa, Fluid (supercritical or subcritical phases), w1 = 0.277	734
302.15 K, 7070 kPa, Fluid (supercritical or subcritical phases), w1 = 0.277	701
304.15 K, 7450 kPa, Fluid (supercritical or subcritical phases), w1 = 0.277	682
305.75 K, 23790 kPa, Gas, w1 = 0.018	856
306.05 K, 16070 kPa, Gas, w1 = 0.62	1076
312.65 K, 17750 kPa, Gas, w1 = 0.62	1052
313.75 K, 126340 kPa, Gas, w1 = 0.496	1150
318.65 K, 92850 kPa, Gas, w1 = 0.496	1121
324.55 K, 104160 kPa, Gas, w1 = 0.092	1160
324.65 K, 110450 kPa, Gas, w1 = 0.286	1131
326.85 K, 147870 kPa, Gas, w1 = 0.131	1240
328.15 K, 88980 kPa, Gas, w1 = 0.092	1124
329.05 K, 27960 kPa, Gas, w1 = 0.018	804
329.05 K, 90520 kPa, Gas, w1 = 0.286	1097
329.05 K, 137580 kPa, Gas, w1 = 0.256	1150
329.15 K, 121140 kPa, Gas, w1 = 0.388	1178
329.35 K, 116110 kPa, Gas, w1 = 0.201	1141
330.85 K, 105180 kPa, Gas, w1 = 0.388	1139
330.85 K, 113860 kPa, Gas, w1 = 0.256	1125
331.25 K, 106000 kPa, Gas, w1 = 0.131	1160
332.25 K, 83070 kPa, Gas, w1 = 0.286	1083
332.65 K, 20850 kPa, Gas, w1 = 0.62	1031
333.45 K, 68350 kPa, Gas, w1 = 0.496	1075
333.65 K, 93560 kPa, Gas, w1 = 0.201	1111
340.55 K, 73300 kPa, Gas, w1 = 0.092	1062
341.95 K, 70330 kPa, Gas, w1 = 0.286	1044
344.15 K, 77780 kPa, Gas, w1 = 0.388	1077
344.35 K, 77640 kPa, Gas, w1 = 0.256	1045
345.15 K, 74290 kPa, Gas, w1 = 0.201	1048
347.45 K, 60240 kPa, Gas, w1 = 0.496	1049
348.95 K, 30510 kPa, Gas, w1 = 0.018	760
350.05 K, 73950 kPa, Gas, w1 = 0.131	1054
352.15 K, 66510 kPa, Gas, w1 = 0.092	1019
352.95 K, 62980 kPa, Gas, w1 = 0.286	1010
353.95 K, 24590 kPa, Gas, w1 = 0.62	1013
353.95 K, 69580 kPa, Gas, w1 = 0.256	1015
358.75 K, 65340 kPa, Gas, w1 = 0.201	1005
360.85 K, 67620 kPa, Gas, w1 = 0.388	876
363.25 K, 57970 kPa, Gas, w1 = 0.496	997
365.65 K, 63340 kPa, Gas, w1 = 0.092	979
365.85 K, 33480 kPa, Gas, w1 = 0.018	726
366.35 K, 66790 kPa, Gas, w1 = 0.131	1002
366.65 K, 59240 kPa, Gas, w1 = 0.286	976
369.85 K, 63030 kPa, Gas, w1 = 0.256	969
370.45 K, 27170 kPa, Gas, w1 = 0.62	997
372.25 K, 61790 kPa, Gas, w1 = 0.201	968

From the NIST ThermoML archive (doi:10.1016/j.fluid.2005.09.019)
